# Laboratory results reported in article PMC7703437, “In Vitro Hepatic Metabolism of Curcumin Diethyl Disuccinate by Liver S9 from Different Animal Species” (Frontiers in Pharmacology, 2020).
# “And” between values parts separate entries of the source, which are not always exact repeats. Identical values can stand only once.
# Assays:
# human LS9 (HLS9; pooled) = test: In vitro metabolism profiling of CDD in human liver S9 (1 mg/ml); type: in vitro ADME
# Protocol: (§1) The metabolism profiles of CDD were investigated against HLS9, MLS9, DLS9, and RLS9. A stock solution of CDD was prepared at 150 µM in 50% acetonitrile in water before use. The metabolism study was initiated by spiking 735 µl of preincubated LS9 with 15 µl of CDD stock solution, and the mixture was subsequently incubated at 37°C. The final concentrations of CDD and LS9 were 3 μM and 1 mg/ml, respectively. A 50-µl aliquot from the mixture was collected at 0.5, 1, 2, 3, 4, 5, 10, 15, 30, 45, 60, 90, and 120 min and immediately mixed with 100 µl of ice-cold acetonitrile containing 0.45 µM of internal standard DMC to terminate the metabolic reaction. […] The sample at the initial time point (0 min) was prepared as the other samples, except that heat-inactivated HLS9, MLS9, DLS9, and RLS9 (80°C for 20 min; 1 mg/ml protein) were used.
# (§2) The UHPLC system consisted of an Agilent series 1290 quaternary pump with an online degasser, autosampler, column oven, and diode array detector. The mobile phase was composed of (A) 0.1% (v/v) formic acid in acetonitrile and (B) 0.1% (v/v) formic acid in water. Each solution was filtered through a nylon filter (pore size, 0.22 µm; MS® Membrane Filters; Membrane Solutions, United States) before use. The mobile phase flow rate was kept at 1.2 ml/min in a gradient mode using the following elution program: 0–3.0 min, initial A-B (40:60, v/v); 4.5–7.0 min, isocratic elution A-B [50:50, (v/v); 8.5–11.0 min, isocratic elution A-B (60:40, v/v); and 12.0–17.0 min, isocratic elution A-B (40:60, v/v)]. CDD, curcumin, and MSCUR in the supernatant were partitioned using a C8 column (4.6 mm × 50 mm, 2.7 µm; HALO, Advanced Materials Technology, United States) with reference to DMC. The detection wavelength was set at 400 nm (λ max(CDD) = 400 nm, λ max(curcumin) = 427 nm, λ max(MSCUR) = 418 nm, and λ max(DMC) = 421 nm). The column was maintained at 35°C throughout the run, and the supernatant injection volume was set at 20 µl.
# (§3) The concentrations of CDD, curcumin, and MSCUR in the supernatant were determined from the standard plots, which were prepared by spiking individual working solutions of the compounds to heat-inactivated HLS9, MLS9, DLS9, and RLS9 ([Alcorn et al., 2007]; [Montoro-Garcia et al., 2009]; [Singh et al., 2010]). These working standards were extracted with 100 µl of ice-cold acetonitrile containing 0.45 µM of DMC and then 120 μl of the supernatant was diluted with 40 μl of water prior to the UHPLC analysis. The peak area ratios of CDD, curcumin, and MSCUR to the internal standard were computed against linear concentration ranges of 0.025–4.5 µM CDD, 0.025–4.5 µM curcumin, and 0.0125–0.75 µM MSCUR, respectively, with the coefficient of determination (r^2) values greater than 0.99.
# (§4) The percent content of CDD and the metabolites formed upon its incubation with LS9, namely, curcumin and MSCUR, was plotted against incubation time.
# (§5) The following equations were adopted to describe the changes in CDD and MSCUR content over time (t): A = A0e^−k1t (2) B= k1A0/k2−k1(e^−k1t−e^−k2t), (3) where A0 is the CDD concentration at time 0, k 1 is the degradation rate constant of CDD, and k 2 is the degradation rate constant of MSCUR. k 1 and k 2 were determined by using Eqs. 2 and 3, respectively, with nonlinear regression analysis using the SOLVER function of Microsoft Excel for Office 365 MSO (16.0.12527.20986) ([Brown, 2001]). The half-life (t 1/2) was calculated using Eq. 4: t1/2=0.693/k (4)
# (§6) The in vitro intrinsic clearance (CLint,in vitro) of CDD and MSCUR in LS9 was calculated using Eq. 5: CLint, in vitro= k × [V]incubation(ml)/[P]incubation(mg protein), (5) where [V]incubation is the incubation volume in ml, and [P]incubation is the amount of LS9. […]
# [1] = In vitro metabolism profiling of CDD in dog liver S9 (1 mg/ml); type: in vitro ADME, dog (beagle); conditions: beagle, liver S9; dog LS9 1 mg/ml; read-out: t 1/2 (CDD)
# Protocol: as §1, §2, §3, §4, §5, §6
# dog LS9 (DLS9; beagle) = test: as above; type: in vitro ADME
# Protocol: as §1, §2, §3, §4, §5, §6
# RLS9 = test: CDD depletion in RLS9 0.02 mg/ml (optimisation of incubation condition); type: in vitro ADME, rat; conditions: CDD 3 μM
# Protocol: The metabolism profiles of CDD and curcumin formation profile were investigated against HLS9, MLS9, DLS9 and RLS9. A stock solution of CDD was prepared at 150 µM in 50% acetonitrile in water before use. The metabolism study was initiated by spiking a 588 µl pre-incubated LS9 with 12 µl CDD stock solution, and subsequently incubated at 37°C. The final concentrations of CDD and LS9 were 3 µM and 0.02 mg/ml, respectively. A 50 µl aliquot from the mixture was collected at 0.5, 1, 2, 3, 4, 5, 10, 15, 30, 45 and 60 min and was immediately mixed with 100 µl of ice-cold acetonitrile containing 0.45 µM of internal standard DMC to terminate the metabolic reaction. […] Samples of 120 µl of supernatant wee diluted with 40 µl of water prior to UHPLC analysis (Agilent series 1290, Agilent Technology, USA) by means of protocol outlined in Materials and Methods:“In vitro Metabolism Profiling of Curcumin Diethyl Disuccinate”. The sample at 0 min was prepared as other samples except that heat-inactivated HLS9, MLS9, DLS9 and RLS9 (80°C for 20 min; 1 mg/ml protein) were used. Duplicates were conducted for each experiment.
# The peak area ratios of CDD and curcumin to internal standard in the supernatant were determined. The percent contents of CDD and curcumin were plotted against incubation time. The depletion of CDD was calculated with reference to the initial concentration. The saturated substrate was defined as % depletion less than 30.
smiles,measurement,setting,value
"CCOC(=O)CCC(=O)Oc1ccc(/C=C/C(=O)/C=C(O)/C=C/c2ccc(OC(=O)CCC(=O)OCC)c(OC)c2)cc1OC [CDD, curcumin diethyl disuccinate]","CLint, in vitro(CDD) in HLS9 higher than in DLS9",human LS9 (HLS9; pooled); HLS9 vs DLS9,1.8 fold
same,"CLint, in vitro(CDD) in HLS9 higher than in MLS9",human LS9 (HLS9; pooled); HLS9 vs MLS9,1.9 fold
same,"CLint, in vitro(CDD) in HLS9 higher than in RLS9",human LS9 (HLS9; pooled); HLS9 vs RLS9,2.2 fold
same,"CLint, in vitro(CDD)",human LS9 (HLS9; pooled); human LS9,1.51 ± 0.22 ml min^−1 mg protein^−1
same,k 1 (CDD),"human LS9 (HLS9; pooled); human LS9 1 mg/ml, CDD 3 µM, 37°C",1.51 ± 0.22 min⁻¹
same,"CLint, in vivo(CDD)","human LS9 (HLS9; pooled); human, scaled from CLint,in vitro with physiologically based scaling factors",282.18 ± 41.74 L/h/kg
same,"CLint, in vivo total","human LS9 (HLS9; pooled); human, sum of CLint,in vivo(CDD) and CLint,in vivo(MSCUR)","2,533.38 ± 124.30 L h^−1 kg^−1"
same,CLH (predicted hepatic clearance),"human LS9 (HLS9; pooled); human, well-stirred model, QH 20 ml min^−1 kg^−1, fup 0.0594",1.19 ± 4.61 × 10^–4 L h^−1 kg^−1
same,half-life at 3 µM,[1],52.2 ± 15 s
same,"CLint, in vitro(CDD)",dog LS9 (DLS9; beagle); dog LS9,0.85 ± 0.29 ml min^−1 mg protein^−1
same,k 1 (CDD),"dog LS9 (DLS9; beagle); dog LS9 1 mg/ml, CDD 3 µM, 37°C",0.85 ± 0.29 min⁻¹
same,"CLint, in vivo(CDD)","dog LS9 (DLS9; beagle); dog, scaled from CLint,in vitro with physiologically based scaling factors",198.61 ± 66.73 L/h/kg
same,"CLint, in vivo total","dog LS9 (DLS9; beagle); dog, sum of CLint,in vivo(CDD) and CLint,in vivo(MSCUR)","5,915.59 ± 535.14 L h^−1 kg^−1"
same,CLH (predicted hepatic clearance),"dog LS9 (DLS9; beagle); dog, well-stirred model, QH 40 ml min^−1 kg^−1, fup 0.0594",2.38 ± 1.48 × 10^–3 L h^−1 kg^−1
same,% CDD remaining,RLS9; 0.5 min,82.81%
same,%Depletion of CDD,RLS9; 0.5 min,17.19%
same,% CDD remaining,RLS9; 1 min,78.14%
same,%Depletion of CDD,RLS9; 1 min (selected incubation time),22% and 21.86%
same,% CDD remaining,RLS9; 2 min,62.71%
same,%Depletion of CDD,RLS9; 2 min,37.29%
same,% CDD remaining,RLS9; 3 min,56.54%
same,%Depletion of CDD,RLS9; 3 min,43.46%
same,% CDD remaining,RLS9; 4 min,46.44%
same,%Depletion of CDD,RLS9; 4 min,53.56%
same,% CDD remaining,RLS9; 5 min,40.58%
same,%Depletion of CDD,RLS9; 5 min,59.42%
